Measured values as given in ChEMBL document CHEMBL5316264, “Identification of N- and C-3-Modified Laudanosoline Derivatives as Novel Influenza PAN Endonuclease Inhibitors” (J Med Chem, 2023).
In brackets after ≈: the same amount, converted by molar mass. Activity calls are given as the source filed them. The calls are words filed in the database; no cut-off is given here.

What was measured:
[1] = Metabolic stability in mouse plasma assessed as compound remaining measured after 30 mins by LC-MS/MS analysis; format: ADME, cell-free; settings: read-out: Stability
[2] = Cytotoxicity against MDCK cells incubated for 48 hrs by MTT assay; format: toxicity, cell-based, Canis lupus familiaris; settings: dog
Influenza A virus [3] = assay: Antiviral activity against influenza A virus H5N1(A/Duck/Guangdong/212/2004) infected in MDCK cells assessed as inhibition of cytopathic effect incubated for 48 hrs by MTT assay; format: functional, organism-based
Influenza A virus [4] = assay: Antiviral activity against influenza A virus H3N2(JX/312) infected in MDCK cells assessed as inhibition of cytopathic effect incubated for 48 hrs by MTT assay; format: functional, organism-based
Influenza A virus [5] = assay: Antiviral activity against influenza A virus Flu (B/Lee/1940) infected in MDCK cells assessed as inhibition of cytopathic effect incubated for 48 hrs by MTT assay; format: functional, organism-based
[6] = Distribution coefficient, logD of compound at pH 7.4; format: physicochemical; settings: octanol/water
[7] = Aqueous solubility of compound; format: physicochemical
[8] = Solubility of the compound in FaSSIF; format: physicochemical
[9] = Solubility of the compound in FeSSIF; format: physicochemical
[10] = Metabolic stability in mouse plasma assessed as compound remaining measured after 60 mins by LC-MS/MS analysis; format: ADME, cell-free; settings: read-out: Stability
[11] = Metabolic stability in mouse plasma assessed as compound remaining measured after 90 mins by LC-MS/MS analysis; format: ADME, cell-free; settings: read-out: Stability
[12] = Metabolic stability in mouse plasma assessed as compound remaining measured after 120 mins by LC-MS/MS analysis; format: ADME, cell-free; settings: read-out: Stability
[13] = Metabolic stability in mouse liver microsomes assessed as half life at 10 uM incubated for 5 mins in presence of NADPH by LC-MS/MS analysis; format: ADME, Microsome
[14] = Metabolic stability in mouse liver microsomes assessed as intrinsic clearance at 10 uM incubated for 5 mins in presence of NADPH by LC-MS/MS analysis; format: ADME, Microsome; settings: read-out: CLH
[15] = Metabolic stability in mouse liver S9 fraction assessed as half life at 10 uM incubated for 5 mins in presence of NADPH and UDPGA by LC-MS/MS analysis; format: ADME, subcellular
[16] = Metabolic stability in mouse liver S9 fraction assessed as intrinsic clearance at 10 uM incubated for 5 mins in presence of NADPH and UDPGA by LC-MS/MS analysis; format: ADME, subcellular; settings: read-out: CLH
[17] = Half life in BALB/c nude mouse at 2 mg/kg, iv measured after 24 hrs by LC-MS/MS analysis; format: ADME, organism-based; settings: in vivo
[18] = Half life in BALB/c nude mouse at 10 mg/kg, po measured after 24 hrs by LC-MS/MS analysis; format: ADME, organism-based; settings: in vivo
[19] = Half life in BALB/c nude mouse at 15 mg/kg, ip measured after 24 hrs by LC-MS/MS analysis; format: ADME, organism-based; settings: in vivo
[20] = Tmax in BALB/c nude mouse at 10 mg/kg, po measured after 24 hrs by LC-MS/MS analysis; format: ADME, organism-based; settings: in vivo
[21] = Tmax in BALB/c nude mouse at 15 mg/kg, ip measured after 24 hrs by LC-MS/MS analysis; format: ADME, organism-based; settings: in vivo
[22] = Cmax in BALB/c nude mouse at 2 mg/kg, iv measured after 24 hrs by LC-MS/MS analysis; format: ADME, organism-based; set-up: time 24 hrs, dose 2 mg/kg, route iv; settings: in vivo
[23] = Cmax in BALB/c nude mouse at 10 mg/kg, po measured after 24 hrs by LC-MS/MS analysis; format: ADME, organism-based; set-up: dose 10 mg/kg, time 24 hrs, route po; settings: in vivo
[24] = Cmax in BALB/c nude mouse at 15 mg/kg, ip measured after 24 hrs by LC-MS/MS analysis; format: ADME, organism-based; set-up: time 24 hrs, dose 15 mg/kg, route ip; settings: in vivo
[25] = AUC (0 to t) in BALB/c nude mouse at 2 mg/kg, iv measured after 24 hrs by LC-MS/MS analysis; format: ADME, organism-based; set-up: time 24 hrs, dose 2 mg/kg, route iv; settings: in vivo
[26] = AUC (0 to t) in BALB/c nude mouse at 10 mg/kg, po measured after 24 hrs by LC-MS/MS analysis; format: ADME, organism-based; set-up: time 24 hrs, dose 10 mg/kg, route po; settings: in vivo
[27] = AUC (0 to t) in BALB/c nude mouse at 15 mg/kg, ip measured after 24 hrs by LC-MS/MS analysis; format: ADME, organism-based; set-up: time 24 hrs, dose 15 mg/kg, route ip; settings: in vivo
[28] = Clearance in BALB/c nude mouse at 2 mg/kg, iv measured after 24 hrs by LC-MS/MS analysis; format: ADME, organism-based; settings: in vivo
[29] = Oral bioavailability in BALB/c nude mouse at 10 mg/kg measured after 24 hrs by LC-MS/MS analysis; format: ADME, organism-based; settings: in vivo
[30] = Bioavailability in BALB/c nude mouse at 15 mg/kg, ip measured after 24 hrs by LC-MS/MS analysis; format: ADME, organism-based; settings: in vivo
Influenza A virus [31] = assay: Antiviral activity against Influenza A A/WSN/33 (H1N1) infected in BALB/c mouse assessed as survival ratio at 15 mg/kg/day, ip administered twice daily for 5 days starting from 1 hrs post infection and measured daily for 14 days relative to control; format: functional; settings: time 14 day
Influenza A virus [32] = assay: Antiviral activity against Influenza A A/WSN/33 (H1N1) infected in BALB/c mouse at 30 mg/kg/day, ip administered twice daily for 5 days starting from 1 hrs post infection and measured daily for 14 days; format: functional, organism-based; settings: time 5.0 day
Influenza A virus [33] = assay: Antiviral activity against Influenza A A/WSN/33 (H1N1) infected in BALB/c mouse assessed as protection against body weight loss administered ip twice daily for 5 days starting from 1 hrs post infection and measured daily for 14 days; format: functional, organism-based; settings: dose 7.5-30 mg/kg/day, time 5.0 day
Influenza A virus [34] = assay: Antiviral activity against influenza A virus A/WSN/33 (H1N1) infected in MDCK cells assessed as effect on nucleoprotein viral protein expression at 20 uM pretreated with cells for 1 hr followed by viral infection; format: functional, organism-based
Influenza A virus [35] = assay: Antiviral activity against influenza A virus A/WSN/33 (H1N1) infected in MDCK cells assessed as effect on matrix protein 2 expression at 20 uM pretreated with cells for 1 hr followed by viral infection; format: functional, organism-based
Influenza A virus [36] = assay: Antiviral activity against influenza A virus A/WSN/33 (H1N1) infected in MDCK cells assessed as effect on nucleoprotein expression at 20 uM pre-infected with virus for 30 mins followed by 1 hr incubation with cells; format: functional, organism-based; settings: time 1.5 hrs
Influenza A virus [37] = assay: Antiviral activity against influenza A virus A/WSN/33 (H1N1) infected in MDCK cells assessed as effect on matrix protein 2 expression at 20 uM pre-infected with virus for 30 mins followed by 1 hr incubation with cells; format: functional, organism-based; settings: time 1.5 hrs
Influenza A virus [38] = assay: Antiviral activity against influenza A virus A/WSN/33 (H1N1) infected in MDCK cells assessed as reduction in nucleoprotein expression at 20 uM cells pre-infected with virus for 1 hr followed by compound addition; format: functional, organism-based
Influenza A virus [39] = assay: Antiviral activity against influenza A virus A/WSN/33 (H1N1) infected in MDCK cells assessed as reduction in matrix protein 2 expression at 20 uM cells pre-infected with virus for 1 hr followed by compound addition; format: functional, organism-based
Influenza A virus [40] = assay: Antiviral activity against influenza A virus A/WSN/33 (H1N1) infected in MDCK cells assessed as reduction in PB2 mRNA level at 20 uM measured upto 10 hrs after viral infection by RT-PCR analysis; format: functional, organism-based
Influenza A virus [41] = assay: Antiviral activity against influenza A virus A/WSN/33 (H1N1) infected in MDCK cells assessed as reduction in PB2 mRNA level at 20 uM measured after 2 to 5 hrs after viral infection by RT-PCR analysis; format: functional, organism-based; settings: time 2-5 hrs
Influenza A virus [42] = assay: Antiviral activity against influenza A virus A/WSN/33 (H1N1) infected in MDCK cells assessed as reduction in PB2 mRNA level at 20 uM measured after 5 to 8 hrs after viral infection by RT-PCR analysis; format: functional, organism-based; settings: time 5-8 hrs
Erythrocyte = assay: Inhibition of hemagglutination in chicken RBC cells infected with Influenza A virus A/WSN/33 (H1N1) assessed as reduction in virus-induced agglutination of erythrocytes at 0.31 to 81 uM pretreated with H5 antigen for 30 mins followed by addition of chicken erythrocytes measured after 1 hr; format: functional, cell-based; settings: Gallus gallus, dose 0.31-81 µM, time 1.5 hrs
Influenza A virus [43] = assay: Antiviral activity against influenza A virus A/WSN/33 (H1N1) infected in MDCK cells assessed as reduction of ratio of pPOLI-Fluc to Renilla luciferase activity at 2.5 to 10 uM pre-infected with virus for 1 hr followed by compound addition and measured after 24 hrs post infection; format: functional, organism-based; settings: dose 2.5-10 µM
Influenza A virus [44] = assay: Antiviral activity against influenza A virus A/WSN/33 (H1N1) infected in MDCK cells assessed as increase in inhibition of luciferase activity pre-infected with virus for 1 hr followed by compound addition and measured after 24 hrs post infection; format: functional, organism-based; settings: dose <= 6.0 nM
Influenza A virus [45] = assay: Antiviral activity against influenza A virus A/WSN/33 (H1N1) infected in MDCK cells assessed as inhibition of cRNA synthesis pre-infected with virus for 1 hr followed by compound addition and measured after 24 hrs post infection by RT-qPCR analysis; format: functional, organism-based; settings: dose 2.5-10 µM
in vitro = settings: dog, MDCK cells

CCCOC(=O)[C@@H]1Cc2cc(O)c(O)cc2[C@H](Cc2ccc(O)c(O)c2)N1C(=O)c1ccccc1Cl
remaining at 0.5 h [1]: 100%
CC50 at 48 h [2]: 99500 nM
EC50 (Influenza A virus [3]): 1120 nM
EC50 (Influenza A virus [4]): 760 nM
EC50 (Influenza A virus [5]): 430 nM
logD [6]: 3.25
solubility [7]: 1.62 µM (≈ 0.829 µg/mL)
solubility [8]: 78.2 µM (≈ 40 µg/mL)
solubility [9]: 75.3 µM (≈ 38.6 µg/mL)
remaining at 1 h [10]: 95.6%
remaining at 1.5 h [11]: 91.5%
remaining at 2 h [12]: 89.8%
half-life at 10 µM [13]: 9.2 min
microsomal CLint at 10 µM [14]: 134 µL/min/mg
half-life at 10 µM [15]: 103 min
microsomal CLint at 10 µM [16]: 9.57 µL/min/mg
half-life [17]: 19.8 min
half-life [18]: 49.2 min
half-life [19]: 64.2 min
Tmax [20]: 31.2 min
Tmax [21]: 27 min
Cmax [22]: 1590 ng/mL
Cmax [23]: 92.2 ng/mL
Cmax [24]: 890 ng/mL
AUC(0-t) at 24 h [25]: 536 ng·h/mL
AUC(0-t) at 24 h [26]: 164 ng·h/mL
AUC(0-t) at 24 h [27]: 791 ng·h/mL
clearance [28]: 53.8 mL/min/kg
bioavailability [29]: 6.13%
bioavailability [30]: 29.5%
Activity (Influenza A virus [31]): 60%
Activity (Influenza A virus [32]): Active
Activity (Influenza A virus [33]): Dose-Dependent Effect
Activity (Influenza A virus [34]): inactive
Activity (Influenza A virus [35]): inactive
Activity (Influenza A virus [36]): inactive
Activity (Influenza A virus [37]): inactive
Activity (Influenza A virus [38]): Active
Activity (Influenza A virus [39]): Active
Activity (Influenza A virus [40]): Active
Activity (Influenza A virus [41]): Active
Activity (Influenza A virus [42]): Active
inhibition (Erythrocyte): inactive
Activity (Influenza A virus [43]): Active
Activity (Influenza A virus [44]): Dose-Dependent Effect
Activity (Influenza A virus [45]): Dose-Dependent Effect
selectivity ratio (in vitro): 113
